Counter-ions that a name gives are not always drawn.
Test: in vitro
Conditions: rat, gh3-tre-luc cells

Compound | CC50 at 24 h (AC50 (uM) modified / 1000) [µM] | also measured
COC(=O)c1ccc(CBr)cc1 [Methyl 4-(bromomethyl)benzoate] | > 90 | 
Cc1cc(O)ccc1Cl [4-Chloro-3-methylphenol] |  | CC50 at 24 h (AC50 (uM) modified / 1000, Tox21_110001=Tox21_111116, viability, 1 nM T3 present, 24 h): > 50 µM; CC50 at 24 h (AC50 (uM) modified / 1000, Tox21_110001=Tox21_201293, viability, 1 nM T3 present, 24 h): > 90 µM
O=C(CS)Nc1ccccc1 [Thioglycolic acid anilide] | 33.8 | 
COc1cc(NS(C)(=O)=O)ccc1Nc1c2ccccc2nc2ccccc12 [Amsacrine hydrochloride] | 0.432 | 
OCCCCCCO [1,6-Hexanediol] | > 90 | 
Cc1cc(C)nc(Nc2ccccc2)n1 [Pyrimethanil] | > 90 | 
S=P(N1CC1)(N1CC1)N1CC1 [Thiotepa] | > 100 | 
COc1nc(C)nc(NC(=O)NS(=O)(=O)c2ccccc2OCCCl)n1 [Triasulfuron] | > 90 | 
CCCCC[C@H](O)/C=C/[C@@H]1[C@H]2C/C(=C/CCCC(=O)O)O[C@H]2C[C@H]1O [Epoprostenol sodium] | > 50 | 
O=C1c2ccccc2C(=O)N1CCl [2-(Chloromethyl)-1H-isoindole-1,3(2H)-dione] | > 90 | 
O=C1CCCCO1 [Tetrahydro-2H-pyran-2-one] | > 90 | 
CC1CCc2nccnc21 (stereo not drawn) [5H-5-Methyl-6,7-dihydrocyclopenta[b]pyrazine] | > 90 | 
CC(C)N(c1ccccc1)C(C)C [N,N-Diisopropylaniline] | > 90 | 
CC1(C)O[C@@H]2C[C@H]3[C@@H]4C[C@H](F)C5=CC(=O)C=C[C@]5(C)[C@@]4(F)[C@@H](O)C[C@]3(C)[C@]2(C(=O)CO)O1 [Fluocinolone acetonide] | > 50 | 
O=C(O)COc1ccc(C(=O)c2cccs2)c(Cl)c1Cl [Ticrynafen] | > 50 | 
Cc1c(C)c2c(c(C)c1OC(=O)c1cccnc1)CC[C@@](C)(CCC[C@H](C)CCC[C@H](C)CCCC(C)C)O2 (racemic) [DL-alpha Tocopheryl nicotinate] | > 50 | 
C[C@]12CC[C@H]3[C@@H](CCC4=C(Cl)C(=O)CC[C@@]43C)[C@@H]1CC[C@@H]2O [Clostebol] |  | CC50 at 24 h (AC50 (uM) modified / 1000, Tox21_110001=Tox21_111857, viability, 1 nM T3 present, 24 h): > 50 µM
CCCCCCCCS(=O)(=O)O [Sodium 1-octanesulfonate] | > 90 | 
Cc1ccc(C(=O)C(C)CN2CCCCC2)cc1 (stereo not drawn) [Tolperisone hydrochloride] | > 50 | 
CCCN(CCCl)c1c([N+](=O)[O-])cc(C(F)(F)F)cc1[N+](=O)[O-] [Fluchloralin] |  | CC50 at 24 h (AC50 (uM) modified / 1000, Tox21_110001=Tox21_301333, viability, 1 nM T3 present, 24 h): > 90 µM

Compound | CC50 at 24 h (AC50 (uM) modified / 1000) [µM] | also measured
O=C1OC2(c3ccccc31)c1cc(Br)c(O)c(Br)c1Oc1c2cc(Br)c(O)c1Br [2',4',5',7'-Tetrabromofluorescein] | 5.55 | 
Cc1ncsc1CCO [Thiamine thiozole] | > 90 | 
COC(=O)C(C)O (stereo not drawn) [Methyl 2-hydroxypropanoate] | > 90 | 
CC(=O)OCC(=O)[C@@]1(O)CC[C@H]2[C@@H]3CCC4=CC(=O)C=C[C@]4(C)[C@@]3(F)[C@@H](O)C[C@@]21C [Isoflupredone acetate] | > 20 | 
O=C1[C@H]2CCCC[C@H]2C(=O)N1CCCCN1CCN(c2nsc3ccccc23)CC1 [Perospirone hydrochloride] | 21 | 
CCN(CC)C(C)CN1c2ccccc2Sc2ccccc21 (stereo not drawn) [Ethopropazine hydrochloride] | 10.7 | 
CCCCc1c(C)nc(NCC)[nH]c1=O [Ethirimol] | > 90 | 
CN(C)[C@@H]1C(O)=C(C(N)=O)C(=O)[C@@]2(O)C(O)=C3C(=O)c4c(O)cccc4[C@@](C)(O)[C@H]3[C@H](O)[C@@H]12 [Oxytetracycline hydrochloride] | > 90 | 
COc1ccc(-c2ccc3cc(C(=O)O)ccc3c2)cc1[C@]12C[C@H]3C[C@H](C[C@H](C3)C1)C2 [Adapalene] | 1.88 | 
C=CC(=O)OCC(C)OCC(C)OCC(C)OC(=O)C=C (stereo not drawn) [Tripropylene glycol diacrylate] | 36.2 | 
C=C(C)C(=O)OC1CC(C)CC(C)(C)C1 (stereo not drawn) [3,3,5-Trimethylcyclohexyl 2-methylprop-2-enoate] | > 90 | 
Cc1ccc(Cl)cc1N [5-Chloro-2-methylaniline] | > 90 | 
CC(C)CCCCCCCOP(=O)(Oc1ccccc1)Oc1ccccc1 [Isodecyl diphenyl phosphate] | 27.3 | 
O=C1C=CC(=O)N1c1ccc(Cc2ccc(N3C(=O)C=CC3=O)cc2)cc1 [Bismaleimide] | 6.41 | 
Cc1cccc(O)c1N [2-Amino-m-cresol] | 66.6 | 
CC(=O)Nc1ccc(OCC(O)CNC(C)C)cc1 (stereo not drawn) [Practolol] | > 50 | 
CO[C@@H]1[C@@H](O[C@@H]2O[C@H](C)[C@@H](O[C@H]3C[C@@](C)(O)[C@@H](O)[C@H](C)O3)[C@H](N(C)C)[C@H]2O)[C@@H](CC=O)C[C@@H](C)[C@@H](O[C@H]2CC[C@H](N(C)C)[C@@H](C)O2)/C=C/C=C/C[C@@H](C)OC(=O)C[C@H]1OC(C)=O [Spiramycin II] | 32.1 | 
Nc1nc2[nH]cc(CCc3ccc(C(=O)N[C@@H](CCC(=O)O)C(=O)O)cc3)c2c(=O)[nH]1 [Pemetrexed disodium] | > 50 | 
C=CCCC=C [1,5-Hexadiene] | > 90 | 
CCCN(CC)CC1COC2(CCC(C(C)(C)C)CC2)O1 (stereo not drawn) [Spiroxamine] | > 90 | 

Compound | CC50 at 24 h (AC50 (uM) modified / 1000) [µM] | also measured
CC(CO)c1ccccc1 (stereo not drawn) [2-Phenylpropan-1-ol] | > 90 | 
O=C(Cc1ccccc1)c1ccccc1 [1,2-Diphenylethanone] |  | CC50 at 24 h (AC50 (uM) modified / 1000, Tox21_110001=Tox21_302159, viability, 1 nM T3 present, 24 h): > 90 µM
CN/C(=C\[N+](=O)[O-])NCCSCc1ccc(CN(C)C)o1 [Ranitidine] | > 90 | 
O=[N+]([O-])c1cccc(CCl)c1 [3-Nitrobenzyl chloride] | > 90 | 
CC1=CCC(=C(C)C)CC1 [Terpinolene] | > 90 | 
COc1ccc(/C=C/S(=O)(=O)NC(=O)c2ccc(C)cc2Cl)cc1 [PharmaGSID_48514] | > 90 | 
O=C(O)CCCc1ccccc1 [Sodium 4-phenylbutyrate] | > 50 | 
O=Cc1cc2ccccc2o1 [2-Benzofurancarboxaldehyde] | > 90 | 
Cc1cccc(N)c1N [2,3-Diaminotoluene] | > 90 | 
NNCCO [2-Hydroxyethylhydrazine] |  | CC50 at 24 h (AC50 (uM) modified / 1000, Tox21_110001=Tox21_301204, viability, 1 nM T3 present, 24 h): > 90 µM
Cc1ncc([N+](=O)[O-])n1C [1,2-Dimethyl-5-nitroimidazole] | > 90 | 
NS(=O)(=O)C(F)(F)C(F)(F)C(F)(F)C(F)(F)C(F)(F)C(F)(F)C(F)(F)C(F)(F)F [Perfluorooctanesulfonamide] | 52.8 | 
O=c1[nH]c2cc(C(F)(F)F)c(N3CCOCC3)cc2n(CP(=O)(O)O)c1=O [Fanapanel] | > 50 | 
CC(C)[C@@H]1CC[C@@H](C)C[C@H]1OC(=O)c1ccccc1O [Menthyl salicylate] | > 50 | 
C[C@]12CC[C@H](OS(=O)(=O)O)CC1=CC[C@@H]1[C@@H]2CC[C@]2(C)C(=O)CC[C@@H]12 [Sodium prasterone sulfate dihydrate] |  | CC50 at 24 h (AC50 (uM) modified / 1000, Tox21_110001=Tox21_111223, viability, 1 nM T3 present, 24 h): > 50 µM
C=Cc1ccc(C=C)cc1 [1,4-Divinylbenzene] | > 100 | 
C[C@]12CC[C@@H]3c4ccc(OC(=O)N(CCCl)CCCl)cc4CC[C@H]3[C@@H]1CC[C@@H]2O [Estramustine] |  | CC50 at 24 h (AC50 (uM) modified / 1000, Tox21_110001=Tox21_112207, viability, 1 nM T3 present, 24 h): > 50 µM
CC1=NN(c2cccc(S(=O)(=O)O)c2)C(=O)C1 [3-(3-Methyl-5-oxo-4,5-dihydro-1H-pyrazol-1-yl)benzenesulfonic acid] | > 90 | 
CC(C)=CCOC(=O)c1ccccc1 [3-Methyl-2-butenyl benzoate] | > 90 | 
